This passage reports Invasion and IC50 results from patent US20070185176A1, “Heparanase inhibitors and uses thereof” (Insight Bioharmaceuticals Ltd., priority 2004, published 2007).

For orientation: IC50 means the midpoint of a concentration-inhibition curve.

One experiment relates to HT1080 cells. In words: In vitro assay of invasion inhibition (BD BioCoat Angiogenesis System, matrigel). The class given is cell-based, human. The following applies: HT1080 cells through matrigel, non-toxic concentration, 22 hours. How it is done:
(c) In Vitro Assay of Invasion Inhibition by Heparanase Inhibitors
The ability of the compounds of the invention to inhibit cell invasion was determined quantitatively by the in vitro Endothelial Cell Migration assay using a BD BioCoat Angiogenesis System kit. The kit consists of a 24-multiwell insert plate (FluoroBlok, BD Falcon) containing a microporous (3.0 μm pore size) polyethylene terephthalate (PET) membrane that is capable of blocking fluorescence completely (>99% efficiency). This membrane is uniformly coated with matrigel (BD Matrigel Matrix). The uniform layer of matrigel matrix serves as a reconstituted authentic basement membrane in vitro, providing a true barrier to non-invasive cells, but allowing endothelial cells to attach to the membrane and freely migrate towards an angiogenic stimulus in the lower chamber of the insert plate. Post-labeling the cells with a fluorescent dye and measuring the fluorescence of invading cells in a fluorescent plate reader, provides quantitative measurement of cell invasion.
To cover the optimal seeding density for HT1080 cells, suspensions containing various cell concentrations were prepared: 1 ml of 3×10^5 cells/ml, 8 ml of 1.5×10^5 cells/ml and 1 ml of 0.75×10^5 cells/ml. The top chambers of each well in the inserts was filled with 0.25 ml cell-suspension, […] DMEM containing 5% fetal calf serum and an inhibitor solution. The plates were incubated for 22 hours at 37° C. and 8% CO2 atmosphere. At the end of incubation, the medium was aspirated from the upper chambers, and the insert was transferred into a second 24-well plate containing 0.5 ml/well of the fluorescent dye Calcein AM solution (4 μg/ml per plate, prepared from 50 μg Calcein AM dissolved in 20 μl DMSO and 12.5 ml of warm HBSS medium), and incubated for 90 minutes at 37° C., 8% CO2 atmosphere. Fluorescence of invaded cells was read in a fluorescence plate reader with bottom read capabilities at excitation/emission wavelength of 485/530 nm, without further manipulation. Only those labeled cells that have invaded the matrigel and passed through the pores of the PET membrane, were detected.

Experiment [1] deals with T1, human recombinant heparanase (h-hpa) (Homo sapiens, UniProt Q9Y251).
T1 sequence (Q9Y251 158-543 limits assumed): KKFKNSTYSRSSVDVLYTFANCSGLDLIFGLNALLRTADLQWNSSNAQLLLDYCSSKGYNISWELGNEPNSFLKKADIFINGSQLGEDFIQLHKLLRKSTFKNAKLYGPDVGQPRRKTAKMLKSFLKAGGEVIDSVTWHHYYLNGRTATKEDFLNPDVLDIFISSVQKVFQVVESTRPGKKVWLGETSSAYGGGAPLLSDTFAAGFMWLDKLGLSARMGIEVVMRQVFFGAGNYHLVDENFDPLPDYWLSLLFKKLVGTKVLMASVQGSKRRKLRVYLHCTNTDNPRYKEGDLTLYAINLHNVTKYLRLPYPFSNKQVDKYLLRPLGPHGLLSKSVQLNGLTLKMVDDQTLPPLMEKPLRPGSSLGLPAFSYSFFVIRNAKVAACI
T1 sequence (Q9Y251 36-109 limits assumed): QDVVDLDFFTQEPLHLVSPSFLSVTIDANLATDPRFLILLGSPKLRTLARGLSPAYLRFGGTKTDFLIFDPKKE
As to the kind of experiment: In vitro dimethylmethylene blue (DMB) assay for heparanase activity.
Description: (a) In Vitro Dimethylmethylene Blue (DMB) Assay for Heparanase Activity
Heparin Sepharose CL-6B beads were added up to the top of the wells of a multiscreen column loader (Millipore). A 96-well multiscreen plate containing 0.65 μm hydrophilic, low protein binding, Durapore membrane (Millipore) was placed, upside down, on top of the multiscreen column loader. The column loader and the multiscreen plate were held together, turned over, and the beads were uniformly transferred from the column loader to the multiscreen plate (Millipore, MADVM 650). Double-distilled water (DDW) was then added to the beads, which were allowed to swell for one minute, and then washed (three times) with DDW under vacuum. Heparin concentration was estimated to be 10 μM/well.
To each well, phosphate-buffered saline (PBS) containing 1% bovine serum albumin (BSA; 70 μl/well) and DMB (32 mg of DMB were dissolved in 5 ml ethanol, diluted to 1 liter with formate buffer containing 4 g sodium formate and 4 ml formic acid; 120 μl/well) were added. Color was developed after 5 minutes, and the absorbance of the samples was determined using a microplate reader (Spectra Max, Molecular Devices) at 530 nm with 570 nm as reference. The absorbance correlated to heparanase activity. As a control, heparanase was added to the heparin Sepharose swollen beads in the multiscreen plate and the heparanase reaction products were filtered immediately thereafter and the absorbance of these control samples was subtracted from all other samples.
The cell extracts were centrifuged and resuspended in 20 mM phosphate citrate buffer, pH 5.4 containing 50 mM NaCl. The cells were lysed by three cycles of freezing and thawing. The cell lysates were centrifuged (10000×g for 5 min), supernatants were collected and then assayed for heparanase activity using the DMB assay.
The partially purified human recombinant heparanase or the crude cell extracts expressing either human or mouse recombinant heparanase were added for a 3-hour incubation and the reaction continued as described above. Absorbance of the developing color was measured as described above.

`CCCCCCCCCCCCCCCCOc1ccccc1C1C=NN(c2ccc(S(=O)(=O)O)cc2)C1=O` (stereo not drawn) [Compound 28]: in the experiment on HT1080 cells, the Invasion entry was “yes”. Further, the IC50 in experiment [1] is 1000 nM.
Consider `CCCCCCCCCCCCCCCCCC1=NN(c2ccc(Oc3ccccc3)c(S(=O)(=O)O)c2)C(=O)C1` [Compound 29], for which, in the experiment with HT1080 cells, the Invasion result was “yes”. Moreover, in experiment [1], the IC50 was found to be 320 nM.
For `CCCCCCCCCCCCCCCCCC1=NN(c2ccc(Oc3ccccc3)c(S(=O)(=O)O)c2)C(=O)C1C(C)C` (stereo not drawn) [Compound 30], the Invasion result in the experiment with HT1080 cells is recorded as “yes”. Further, the IC50 in experiment [1] was 160 nM.
In the case of `CCCCCCCCCCCCCCCc1ccc(OC(CC)C(=O)NCCCNC(=O)c2ccc3ccccc3c2O)cc1` (stereo not drawn) [Compound 31], in the experiment with HT1080 cells, the Invasion result was “yes”. Further, in experiment [1], the IC50 is 520 nM.
On the same counts, the results for `CCCCCCCCCCCCCCCCCC(=O)Nc1nn(-c2ccc(Oc3ccccc3)c(S(=O)(=O)O)c2)c(O)c1/N=N/c1c(C)nn(CCCCCCCCCC)c1C` [Compound 32] are “yes” and 240 nM.
Take `CCCCCCCCCCCCCCCCCCN(C(=O)c1cc(Br)c2ccccc2c1O)c1cc(C(=O)O)cc(C(=O)O)c1` [Compound 43]: the Invasion entry in the experiment with HT1080 cells is reported as “yes”. For the same compound, in experiment [1], the IC50 turned out to be 550 nM.
